Experiment [1] concerns the target T1, c-Myc peptide [SEQ ID No. 4] (Homo sapiens, UniProt P01106).
T1 construct: phosphothreonine (T58) and phosphoserine (S62) (chemical modification); purchased New England Peptide, Fitchburg Mass; host or cells: chemical synthesis
The experiment in a line: Phosphopeptide binding assay, peptide-BSA coated IPR plate. How it is done: A phosphopeptide derived from the IkBa degradation motif (SEQ ID NO: 1) and a phosphopeptide derived from c-Myc (SEQ ID NO: 4) were chemically synthesized (New England Peptide, Fitchburg Mass.) with the following sequences respectively:
To prepare IPR plates for use in the assay, approximately 2.4 pmol BSA, 1.2 pmole IκBα-24pp peptide-BSA conjugate or 1.2 pmole of Myc-p58Tp62S peptide-BSA conjugate in 2.5 μl were deposited on the carbon working electrode surface in a single well of a 96-well plate. At this stage, the plates were dried then used or stored under desiccated condition. A few hours prior to usage, the plates were rehydrated and blocked with 3% BSA, in PBS.
Two βTRCP genes, βTRCP1 and βTRCP2, are present in the human genome on […], respectively. The coding sequence of these two genes shares over 90% identity and several full-length cDNAs of which are available as EST clones from Incyte (Palo Alto, Calif.) IMAGE #3491843 and 4237375. Also included were three other non specific EST clones as controls (Incyte, Palo alto, Calif.). […] These DNAs were used to produce the βTRCP protein and proteins encoded by the other DNAs as described in the Example 7. Proteins were transferred into wells of the peptide-coated and BSA-blocked IPR plates. […] The ECL signals were measured using an imaging plate reader (IPR).

Experiment [2] has as its system pooled phosphopeptide:BSA conjugates (Pools A-D). The experiment in a line: Coded multiplex phosphopeptide binding assay with pooled peptide:BSA conjugates on 4 spots. The following applies: for ECL signal, spot A: Pool A, EGFR-pTyr1148, IkBa-24ppC, Myc-p58Tp62S; for ECL signal, spot B: Pool B, EGFR-pTyr992, EGFR-pTyr1148, Smad3C; for ECL signal, spot C: Pool C, EGFR-pTyr1068, IkBa-24ppC, Smad3C; for ECL signal, spot D: Pool D, EGFR-pTyr992, EGFR-pTyr1068, Myc-p58Tp62S. From the text: To prepare the Multi-Spot IPR plates, in this example we made use of pools of the peptide:BSA conjugates to coat each of 4 spots per well in a 96 well plate. To achieve this we made the following pools; • Pool A; EGFR-pTyr1148, IkBa-24ppC, Myc-p58Tp62S. • Pool B; EGFR-pTyr992, EGFR-pTyr1148, Smad3C. • Pool C; EGFR-pTyr1068, IkBa-24ppC, Smad3C. • Pool D; EGFR-pTyr992, EGFR-pTyr1068, Myc-p58Tp62S.
This combination of the various peptides results in any single peptide being present in two pools. Each of these four pools is then spotted on to a unique spot in a 4 spot array. In this way any single binding protein with specificity for only one of the peptides would bind to two spots; the identity of the two spots would allow the identification of the peptide involved in the binding reaction.
Typically approximately 120 fmole of peptide:BSA conjugate in 0.25 μl was deposited on each spot of a 4-spot multi-array IPR plates using a BioDot Dispenser (Bio-Dot Inc., vIrvine Calif.). At this stage, the plates were dried then used or stored under desiccated condition. A few hours prior to usage, the plates were rehydrated and blocked with 3% BSA, in PBS.
To test the system the following EST clones IMAGE # 3491843, 4237375, 4398016, 4419252, 3872466, 3907115 were obtained. These clones express the following genes βTRCP1, βTRCP2, Grb2, PLCγ, CBP and Shc1, respectively. […] These DNAs were used to produce proteins as described in the Materials and Methods. Proteins were transferred to a well of the 4 spot peptide-coated and BSA blocked ECL plates. The binding assay (using Sulfo-TAG labeled streptavidin as a detection agent) was carried our according to the procedures described in Example 11.

T1 sequence (P01106 with tags, fused parts or gaps limits assumed): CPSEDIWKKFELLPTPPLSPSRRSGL

Take “3872466: IMAGE clone protein: mCBP [compound 3872466]”: in experiment [1], the “Average ECL signal, c-Myc peptide [SEQ ID No. 4]” value was found to be 351. In addition, in experiment [2], the “Code (pattern of positive spots)” value is recorded as “Neg”; the “Peptide determined from code” value is “Negative”; the “ECL signal, spot A” value was determined as 19; the “ECL signal, spot B” value amounted to 30. In experiment [2], the “ECL signal, spot C” value turned out to be 22 and the “ECL signal, spot D” value turned out to be 15.
For the substance “3491843: IMAGE clone protein: βTRCP1 [compound 3491843]”, in experiment [1], the “Average ECL signal, c-Myc peptide [SEQ ID No. 4]” value came out at 2118. Moreover, in experiment [2], the “Code (pattern of positive spots)” value was “A, C”; the “Peptide determined from code” value is listed as “IkBa-24ppC”; the “ECL signal, spot A” value amounted to 9536; the “ECL signal, spot B” value worked out at 208. In experiment [2], the “ECL signal, spot C” value turned out to be 11184 and the “ECL signal, spot D” value amounted to 171.

(Values after patent US7063946B2, “Methods, reagents, kits and apparatus for protein function analysis” (Meso Scale Technologies, LLC., priority 2001, dated 2006).)
